Tests used:
[1] = plasma kinetics of TMC278 in the beagle dog after single intramuscular administration of aqueous 30% DMA/50% PEG400 solution; format: in vivo; details: single IM 2.5 mg/kg
Method: The study was performed in order to study the plasma kinetics and the absolute bioavailability of TMC278 in the beagle dog after single intramuscular administration (IM) of an aqueous 30% dimethylacetamide (DMA)/50% polyethylene glycol 400 (PEG400) solution of TMC278 at 2.5 mg/kg. The dogs were dosed IM.
Two male beagle dogs (dog No. 16924 and 16854), approximately 3 years old and weighing between 11 and 12 kg at the start of the experimental phase, were used in the present experiment. The dogs were dosed intramuscularly at 0.1 ml/kg body weight by injecting the formulation in the left (dog No. 16924) or right (dog No. 16854) m. biceps femoris. […]
Blood samples (4 ml on EDTA) were taken from a jugular vein from the dogs at 0 (=predose), 0.5, 1, 2, 4, 8, 24, 32, 48, 72, 96, 144, 192, 240 and 312 h after dose administration. […] These samples were analogously processed and analysed.
On day 232 post-dose, a biopsy was performed (dog No. 16924 only) on the iliac lymph node (at the side of injection), on a muscle from the non-injected hind leg and on a muscle at the side of injection after ultrasonographic examination. […] This sample was processed and analysed similarly to the other blood samples.
The concentration of TMC278 in dog plasma was determined by a qualified research LC-MS/MS method after solid phase extraction (SPE). […]

[2] = tested on: wild type HIV and mutated variants; details: cited from earlier work

Cc1cc(C=CC#N)cc(C)c1Nc1ccnc(Nc2ccc(C#N)cc2)n1 [TMC278, 4-[[4-[[4-(2-cyanoethenyl)-2,6-dimethylphenyl]amino]-2-pyrimidinyl]amino]benzonitrile]
t1/2,24-72h ([1]; mean (n=2)): 63.1 h | course of plasma levels after 72 h post-dose ([1]; 72 h up to 312 h post-dose): remained fairly constant or slightly increased | activity against wild type HIV and many of its mutated variants [2]: pronounced activity
